Laboratory results: US10377818B2, “Method of treating glioma” (The Board of Trustees of the Leland Stanford Junior …, priority 2015, dated 2019)
Like-named read-outs stand apart in the source and are kept apart here.

Key:
SU-pcGBM2 cells [1] = assay: EdU incorporation assay, proliferation index of pHGG cells (SU-pcGBM2); type: cell-based, human; details: for effect on the proliferative effect of active CM: 100 nM TRKB inhibitor ANA12 in combination with 500 nM NRXN; for effect on 50 nM NLGN3-induced increase in proliferation index: inhibitor 100 nM, EdU assay; for effect on proliferation index relative to aCSF control: recombinant candidate proteins at 100 nM for 24 hours; for potency of proliferation promotion compared with NLGN3: pHGG cells, dose curves 0-100 nM
secreted NLGN3 = assay: Secreted NLGN3 in active CM of acute cortical slices incubated with protease inhibitors, Western blot; type: cell-based, mouse; details: slices incubated with protease inhibitor during optogenetic stimulation, preliminary experiments
Procedure: (§1) Thy1::ChR2 or WT mice between the age of 4-7 weeks were briefly exposed to CO2, and immediately decapitated. Extracted brains were placed in oxygenated sucrose solution and sliced in 350-μm sections using a vibratome (Leica VT 1200S, Buffalo Grove, Ill.). Slices were then placed in buffering solution (aCSF; 119 mM NaCl, 11 mM D-glucose, 25 mM NaHCO3, 2.5 mM KCl, 1.2 mM NaH2PO4, 2.3 mM MgCl2, and 2.5 mM CaCl2) and allowed to recover for at least an hour. After recovery, slices were then moved into a 24 well plate and stimulated using a blue-light LED from a microscope objective. The stimulation paradigm mirrored in vivo experiments, using 20-Hz pulses of blue light for a 30 s on, 90 s off cycle over a period of 30 minutes. Surrounding medium was then collected for immediate use or frozen for future experiments.
A series of similar preliminary experiments were performed in which acute cortical slices were incubated with different protease inhibitors during optogenetic stimulation and then the active CM was analyzed by Western blot for secreted NLGN3.
Role for MMP9 in NLGN3 secretion: Acute cortical slices from Thy1::ChR2 mice were optogenetically-stimulated in the presence or absence of protease inhibitors as indicated. Conditioned media was analyzed by Western blot for secreted NLGN3 content.

[2] = tested on: NLGN3 mRNA in SU-pcGBM2 cells; assay: qPCR of NLGN3 gene expression in SU-pcGBM2 cells; type: cell-based, human; details: for effect on soluble NLGN3-induced increase in NLGN3 gene expression: 50 nM NLGN3 plus inhibitor, BKM120 500 nM (FIG. 5E) or 100 nM (FIG. 29), RAD001 100 nM
[3] = tested on: soluble NLGN3 in the CM (NLGN3 secretion); assay: Soluble NLGN3 in CM of optogenetically stimulated acute cortical slices, 2D-PAGE and mass spectrometry; type: cell-based, mouse; details: slices incubated with inhibitor during optogenetic stimulation; pilot experiment
Procedure: as §1

SU-pcGBM2 cells [4] = type: cell-based, human
pHGG cells = assay: pHGG cell proliferation with active CM from slices stimulated in presence of protease inhibitor; type: cell-based, human; details: inhibitor present during optogenetic stimulation of slices
Source text: MMP inhibition abrogates activity-regulated glioma proliferation. Acute cortical slices were optogenetically-stimulated in the presence or absence of a protease inhibitor as in Example 14, and pHGG cells were exposed to the CM. As expected, active CM in the absence of protease inhibitors contained secreted NLGN3 (FIG. 37) and promoted glioma cell proliferation (FIG. 38).
MMP inhibition in situ reduces activity-regulated glioma cell proliferation in vitro Active CM from Thy1::ChR2 cortical slices were incubated with either the multi-MMP inhibitor batimastat (A) or the ADAM17 inhibitor TAPI (B) during optogenetic stimulation and the active CM collected. Unconditioned media (aCSF) with or without inhibitor was used in control wells. Data shown as mean±SEM. One-way ANOVA, *P<0.05, ***P<0.001. n.s.=P>0.05.

O=C(Nc1ccccc1C(=O)NC1CCCCNC1=O)c1cc2ccccc2s1 (stereo not drawn) [ANA12, reference compound]
effect on the proliferative effect of active CM (SU-pcGBM2 cells [1]): completely abrogates the proliferative effect of active CM

CC(C)ON(CC(=O)NO)S(=O)(=O)c1ccc(-c2ccccc2)cc1 [ARP100]
secreted NLGN3 levels in active CM (secreted NLGN3): No detectable decrease in secreted NLGN3

Cl.Nc1cc(C(F)(F)F)c(-c2cc(N3CCOCC3)nc(N3CCOCC3)n2)cn1 [BKM120, 5-(2,6-dimorpholin-4-ylpyrimidin-4-yl)-4-(trifluoromethyl)pyridin-2-amine hydrochloride]
effect on 50 nM NLGN3-induced increase in proliferation index (SU-pcGBM2 cells [1]): blocked
effect on soluble NLGN3-induced increase in NLGN3 gene expression ([2]; 12 h): blocked the soluble NLGN3-induced increase in NLGN3 gene expression
effect on NLGN3 expression in the absence of soluble NLGN3 exposure ([2]; BKM120 alone, 12 h): no effect on NLGN3 expression

CNC(=O)[C@@H](NC(=O)[C@H](CCCc1ccccc1)[C@H](C)N(O)C=O)C(C)(C)C [GI254023X]
reduction in soluble NLGN3 in the CM [3]: ~50%

O=C(NO)[C@@H](Cc1ccccc1)NS(=O)(=O)c1ccc(-c2ccccc2)cc1 [MMP2/9 inhibitor SCBT inhibitor II, (2R)—N-hydroxy-3-phenyl-2-[(4-phenylphenyl)sulfonylamino]propanamide]
secreted NLGN3 levels in active CM (secreted NLGN3): significant decrease in NLGN3 levels

COc1ccc(S(=O)(=O)N2CCN(C(=O)OCc3ccccc3)CC2C(=O)NO)cc1 (stereo not drawn) [MMP9/13 Inhbitor II]
secreted NLGN3 levels in active CM (secreted NLGN3): significant decrease in NLGN3 levels

CO[C@H]1C[C@@H]2CC[C@@H](C)[C@@](O)(O2)C(=O)C(=O)N2CCCC[C@H]2C(=O)O[C@H]([C@H](C)C[C@@H]2CC[C@@H](OCCO)[C@H](OC)C2)CC(=O)[C@H](C)/C=C(\C)[C@@H](O)[C@@H](OC)C(=O)[C@H](C)C[C@H](C)/C=C/C=C/C=C/1C [RAD001, reference compound]
effect on 50 nM NLGN3-induced increase in proliferation index (SU-pcGBM2 cells [1]): blocks 50 nM NLGN3-induced proliferation
effect on soluble NLGN3-induced increase in NLGN3 gene expression ([2]; 12 h): prevented the feed-forward effect of NLGN3 on NLGN3 gene expression

NC1=N[C@H](O)[C@H]2[C@H]3O[C@]4(O)O[C@@H]([C@@H](O)[C@@]2(N1)[C@@H]4O)[C@]3(O)CO [TTX, tetrodotoxin]
proliferation index (SU-pcGBM2 cells [4]): ~0.25

ApoE: Recombinant candidate protein from proteomic analyses of cortical slice conditioned media
effect on proliferation index relative to aCSF control (SU-pcGBM2 cells [1]): did not differ

BDNF: Recombinant brain-derived neurotrophic factor (R&D Systems), candidate mitogen
potency of proliferation promotion compared with NLGN3 (SU-pcGBM2 cells [1]): less potently than NLGN3
effect on proliferation index relative to aCSF control (SU-pcGBM2 cells [1]): promote glioma cell proliferation

EGF: Epidermal growth factor (Shenandoah), ligand known to stimulate the PI3K pathway
effect on glioma cell NLGN3 expression ([2]; 50 nM EGF, 12 hour vs vehicle): no effect was found

GRP78: Recombinant 78-kDa glucose-regulated protein (Abcam), known glioma mitogen
potency of proliferation promotion compared with NLGN3 (SU-pcGBM2 cells [1]): less potently than NLGN3
effect on proliferation index relative to aCSF control (SU-pcGBM2 cells [1]): promote glioma cell proliferation

NRXN1β: Recombinant neurexin-1β (R&D Systems), binds NLGN3 with high affinity, used to deplete NLGN3
effect on the proliferative effect of active CM (SU-pcGBM2 cells [1]): completely abrogates the proliferative effect of active CM
effect on proliferation index (SU-pcGBM2 cells [1]; NRXN1β alone (500 nM) added to aCSF or to CM from WT cortical slices): no effect on proliferation index
proliferation index (SU-pcGBM2 cells [1]; pHGG cells exposed to 50 nM NLGN3+500 nM NRXN1β): 0.28±0.01
proliferation index (SU-pcGBM2 cells [1]; pHGG cells exposed to Thy1::ChR2 CM+NRXN1β (500 nM)): 0.34±0.01

TAPI
secreted NLGN3 levels in active CM (secreted NLGN3): no effect on NLGN3 levels was observed
secreted NLGN3 levels in active CM (secreted NLGN3; listed as ADAM17 inhibitor): did not decrease NLGN3 levels
effect on the mitogenic effect of active CM (pHGG cells): did not alter the mitogenic effect of active CM
